ChEMBL document CHEMBL1123856, “Synthesis and biological activities of arginine-vasopressin analogues with 4-hydroxyproline in position 7” (1987)
Positions of bridges follow the written chain, without caps; N, C: chain ends. Non-standard residues stand in square brackets, D forms with d. Residues, ends and D or L forms follow the SMILES beside them. NMeA = CN[C@@H](C)C(=O)O; Mpa = O=C(O)CCS

Experiments:
Rattus norvegicus [1] = experiment: Antidiuretic activity on water loaded, ethanol-anesthetized rat.; format: functional, Urine
Rattus norvegicus [2] = experiment: Pressor activity on urethane-anesthetized, phenoxybenzamine-treated rat.; format: functional
Rattus norvegicus [3] = species on record: Rattus norvegicus; experiment: Uterine activity was meseared in isolated rat uterus in solutions in the absence No Mg2+ 0.5 mM in vitro; format: functional
Rattus norvegicus [4] = species on record: Rattus norvegicus; experiment: Uterine activity was meseared in isolated rat uterus in solutions in the presence Mg2+ 0.5 mM in vitro; format: functional

SMILES	Antidiuretic activity (Rattus norvegicus [1])	Pressor activity (Rattus norvegicus [2])	Uterine activity (Rattus norvegicus [3])	Uterine activity (Rattus norvegicus [4])
NC(=O)CC[C@@H]1NC(=O)[C@H](Cc2ccccc2)NC(=O)[C@H](Cc2ccc(O)cc2)NC(=O)[C@@H](N)CSSC[C@@H](C(=O)N2C[C@H](O)C[C@H]2C(=O)N[C@@H](CCCN=C(N)N)C(=O)NCC(N)=O)NC(=O)[C@H](CC(N)=O)NC1=O (stereo in doubt; form 1)	712 units/mg	4 units/mg	73 units/mg	268 IU/mg
NC(=O)CC[C@@H]1NC(=O)[C@H](Cc2ccccc2)NC(=O)[C@H](Cc2ccc(O)cc2)NC(=O)[C@@H](N)CSSC[C@@H](C(=O)N2C[C@H](O)C[C@H]2C(=O)N[C@@H](CCCN=C(N)N)C(=O)NCC(N)=O)NC(=O)[C@H](CC(N)=O)NC1=O (stereo in doubt; form 2)	780 units/mg	1 units/mg	225 units/mg	285 IU/mg
NC(=O)CC[C@@H]1NC(=O)[C@H](Cc2ccccc2)NC(=O)[C@H](Cc2ccc(O)cc2)NC(=O)CCSSC[C@@H](C(=O)N2CC=C[C@H]2C(=O)N[C@@H](CCCN=C(N)N)C(=O)NCC(N)=O)NC(=O)[C@H](CC(N)=O)NC1=O	4130 units/mg	240 units/mg	69 units/mg	
N=C(N)NCCC[C@@H](NC(=O)[C@@H]1CCCN1C(=O)[C@@H]1CSSCCC(=O)N[C@@H](Cc2ccc(O)cc2)C(=O)N[C@@H](Cc2ccccc2)C(=O)N[C@@H](CCC(N)=O)C(=O)N[C@@H](CC(N)=O)C(=O)N1)C(=O)NCC(N)=O [DESMOPRESSIN]	1740 units/mg	346 units/mg	28 units/mg	
N=C(N)NCCC[C@H](NC(=O)[C@@H]1CCCN1C(=O)[C@@H]1CSSC[C@H](N)C(=O)N[C@@H](Cc2ccc(O)cc2)C(=O)N[C@@H](Cc2ccccc2)C(=O)N[C@@H](CCC(N)=O)C(=O)N[C@@H](CC(N)=O)C(=O)N1)C(=O)NCC(N)=O [VASOPRESSIN]	323 units/mg		12 units/mg	
C[C@@H](C(=O)N[C@@H](CCCN=C(N)N)C(=O)NCC(N)=O)N(C)C(=O)[C@@H]1CSSCCC(=O)N[C@@H](Cc2ccc(O)cc2)C(=O)N[C@@H](Cc2ccccc2)C(=O)N[C@@H](CCC(N)=O)C(=O)N[C@@H](CC(N)=O)C(=O)N1 ([Mpa]YFQNC[NMeA]RG-NH2; disulfide 1-6)	113 units/mg	1 units/mg	2 units/mg	8 IU/mg
NC(=O)CC[C@@H]1NC(=O)[C@H](Cc2ccccc2)NC(=O)[C@H](Cc2ccc(O)cc2)NC(=O)[C@@H](N)CSSC[C@@H](C(=O)N2C[C@H](O)C[C@H]2C(=O)N[C@@H](CCCN=C(N)N)C(=O)NCC(N)=O)NC(=O)[C@H](CC(N)=O)NC1=O (stereo in doubt; form 3)	614 units/mg	8 units/mg	63 units/mg	176 IU/mg
CC(C)C[C@H](NC(=O)[C@@H]1CSSC[C@H](N)C(=O)N[C@@H](Cc2ccc(O)cc2)C(=O)N[C@@H](Cc2ccccc2)C(=O)N[C@@H](CCC(N)=O)C(=O)N[C@@H](CC(N)=O)C(=O)N1)C(=O)N[C@@H](CCCN=C(N)N)C(=O)NCC(N)=O (H-CYFQNCLRG-NH2; disulfide 1-6)	19 units/mg			
